According to article PMC7915867, “Discovery of a Small Molecule Inhibitor of Human Adenovirus Capable of Preventing Escape from the Endosome” (International Journal of Molecular Sciences, 2021):
Values joined by “and” are separate entries in the source; they are usually repeats but may differ in a detail not shown here. Equal values may be shown once.

Key:
[1] = system: human cytomegalovirus (HCMV); test: HCMV DNA replication assay; type: cell-based; details: HFF cells, 72 h postinfection, 10-fold IC50 of HAdV plaque assay
Procedure: The broad antiviral activity of compound 16 was tested using human cytomegalovirus (HCMV) in a DNA replication assay. To avoid the influence of newly generated viral particles from subsequent rounds of infection, HCMV DNA was extracted from HFF cells at 72 h postinfection and quantified in a single round of infection as a measurement of the DNA replication efficiency.

[2] = system: HAdV5-GFP; test: microbe, parasite or virus in culture; type: cell-based, human adenovirus
Procedure: Compounds were measured at concentrations of 10 μM and in a dose−response assay ranging from 10 to 0.3 μM using low MOI infections (0.06 vp/cell) in a plaque assay. […] Cells were infected with HAdV5-GFP (0.06 vp/cell) and rocked for 2 h at 37 °C, when cells reached 80%–90% confluency. When the incubation was finished, the inoculum was removed followed by washing the cells once with PBS. […] The compounds were also added to the mixture in concentrations ranging from 10 to 0.3 μM. After incubation for 7 days at 37 °C, we scanned plates with a Typhoon FLA 9000 imager (GE Healthcare Life Sciences, MA, USA) and quantified plaques with ImageJ [47].

[3] = system: wild-type HAdV5; test: Nuclear-associated HAdV genomes; type: cell-based, human adenovirus; details: 45 min postinfection, A549 cells, 2000 vp/cell, 10-fold IC50
Procedure: The nuclear delivery of HAdV genomes was evaluated by real-time PCR following nuclear isolation from infected cells. […] Forty-five minutes after infection, A549 cells were trypsinized, collected, and then washed twice with PBS. After that, we separated cytoplasmic and nuclear fractions using a hypotonic buffer solution and NP-40 detergent and resuspended the cell pellet in 500 μL of 1 × hypotonic buffer (20 mM Tris-HCl pH 7.4, 10 mM NaCl, 3 mM MgCl2). After incubation for 15 min at 4 °C, 25 μL of NP-40 was added and the samples were vortexed. The homogenates were centrifuged for 10 min at 835g and 4 °C. After the removal of the cytoplasmic fraction (supernatant), HAdV DNA was separated from the nuclear fraction (pellet) and from the cytoplasmic fraction using the E.Z.N.A.® Tissue DNA Kit (Omega Bio-tek, Norcross, GA, USA).

[4] = system: HAdV-GFP; test: Thermostability assay (capsid stabilization); type: cell-based, human adenovirus; details: 50 μM, A549 cells
Procedure: HAdV-GFP (37.5 ng) was incubated with compound 16 (50 µM) or the same volume of DMSO for 1 h in complete DMEM. Parallel samples were incubated for 10 min at the indicated temperatures, cooled to r.t., and added to A549 cells on ice to synchronize the infection. After the incubation, cells were washed twice with PBS 1x to remove the nonattached virus and the excess of compound 16 and DMSO. Cells were then incubated for 24 h at 37 °C and 5% CO2 before being visualized for GFP expression in an Olympus inverted microscope Model IX71 (Hamburg, Germany) and analyzed by capturing representative images of each condition using the CellSens Dimension platform (Olympus, Hamburg, Germany).

[5] = system: wild-type HAdV5; test: Virus yield reduction (virus burst assay); type: cell-based, human adenovirus
Procedure: After 48 h, cells were harvested and subjected to three rounds of freeze/thaw. Serial dilutions of clarified lysates were titrated on A549 cells (3 × 10^4 cells/well), and we calculated TCID50 values using an endpoint dilution method.

[6] = system: HAdV5-GFP; test: Time of addition assay; type: cell-based, human adenovirus; details: 10-fold IC50; 293β5 cells, HAdV5-GFP 2000 vp/cell
[7] = system: HAdV-5 DNA replication; test: HAdV DNA quantification by real-time PCR (DNA replication); type: cell-based, human adenovirus; details: Human adenovirus sp., A549, 24 h; read-out: Inhibition of HAdV-5 DNA replication (qPCR)
Procedure: All samples were carried out in duplicate. After incubation for 24 h at 37 °C, DNA was purified from the cell lysate with the E.Z.N.A.® Tissue DNA Kit (Omega Bio-tek, Norcross, GA, USA) following the manufacturer’s instructions. TaqMan primers and probes for a common region of the HAdV5 hexon were designed with the GenScript Real-Time PCR (TaqMan) Primer Design software (GenScript, Leiden, Netherlands). Oligonucleotides sequences were: AQ1: 5′-GCCACGGTGGGGTTTCTAAACTT-3′; AQ2: 5′-GCCCCAGTGGTCTTACATGCACAT-3′; Probe: 6-FAM-5′-TGCACCAGACCCGGGCTCAGGTACTCCGA-3′-TAMRA. Real-time PCR mixtures contained 9.5 μL of the purified DNA, AQ1 and AQ2 at a concentration of 200 nM each and Probe at a concentration of 50 nM in a total volume of 25 μL. The PCR cycling protocol was 95 °C for 3 min followed by 40 cycles of 95 °C for 10 s and 60 °C for 30 s. Human glyceraldehyde-3-phosphate dehydrogenase (GAPDH) gene was applied as internal control. Oligonucleotides sequences for GAPDH and conditions were previously reported by Rivera et al..
For quantification, gene fragments from hexon and GAPDH were cloned into the pGEM-T Easy vector (Promega, MA, USA), and known concentrations of template were used to produce a standard curve in parallel for each experiment. All assays were done in thermal cycler LightCycler® 96 System (Roche, Basel, Switzerland).

[8] = Cytotoxicity assay (AlamarBlue); type: cell-based; details: human, A549 cells, A549 cell line
Procedure: The cytotoxicity of these derivatives was tested by commercial kit AlamarBlue® (Ref. DAL1025, Invitrogen, MA, USA). […] The cytotoxic concentration 50 (CC50) value was obtained by using the statistical package GraphPad Prism. This assay was performed in duplicate.

[9] = system: HAdV5; test: HAdV-mediated endosome disruption (α-sarcin co-delivery assay); type: cell-based, human adenovirus; details: A549 cells, 10-fold IC50, virus below 12 ng
Procedure: A549 cells (~20,000 cells/well) were incubated in DMEM without cysteine or methionine supplemented with 10% dialyzed FBS [DMEM (−)] in black 96-well plates for 1 h before infection. […] The medium was then removed and replaced with 50 μL DMEM (−) containing 0.1 mg/mL α-sarcin (Santa Cruz Biotechnology, Dallas, TX, USA) and the virus and drug mixtures. After 2 h at 37 °C, the Click-iT HPG Alexa Fluor 488 Protein Synthesis Assay Kits (Invitrogen, MA, USA) were used to analyze protein synthesis according to the manufacturer’s instructions. The incorporation of the amino acid analog of methionine L-homopropargylglycine (HPG) containing Alexa Fluor 488 azide was measured using a Typhoon 9410 imager (GE Healthcare Life Sciences, MA, USA) and calculated subtracting the background level of the control well containing L-homopropargylglycine (HPG) and α-sarcin but not virus (100% incorporation).

O=C(NCC1CCCCC1)c1cc(Cl)ccc1O [Compound 16, 5-Chloro-N-(cyclohexylmethyl)-2-hydroxybenzamide]
Decrease of total HCMV DNA compared to DMSO control [1]: 95% | Plaque Assay IC50 ([2]; HAdV5-GFP, low MOI, 293β5 cell line): submicromolar | inhibition at 10 µM ([2]; Human adenovirus sp., read-out: Plaque Assay (10 μM) (%) Inhibition): 100% | IC50 ([2]; Human adenovirus sp., read-out: Plaque Assay IC50): 780 ± 10 nM | Selectivity Index (SI) ([2]; ratio of CC50 to IC50 in plaque assay): 116.9 | Inhibition of HAdV DNA accessibility to the nucleus [3]: more than 99% | GFP expression 24 h postinfection, virus heated to 48 °C [4]: significant levels of GFP expression | GFP expression 24 h postinfection, virus heated to 52 °C [4]: some residual expression | Virus yield reduction compared to niclosamide ([5]; 16 at 10-fold IC50 versus niclosamide 5 μM): 2.5 fold | Virus Yield Reduction ([5]; A549 cells, HAdV 100 vp/cell, 48 h, niclosamide 5 μM, 16 at 10-fold IC50, versus DMSO): 208 fold and 208 ± 108 fold | Inhibition of HAdV infection, compound added at 0 min p.i. [6]: 95.3% | Inhibition of HAdV infection, compound added at 20 min p.i. [6]: 30.7% | inhibition at 7.8 µM [7]: 50% | CC50 at 48 h [8]: 91.2 ± 18.4 µM | HAdV-mediated endosome lysis [9]: prevented HAdV-mediated endosome lysis
